Biological target: T1, cNMP-EPAC-1 (cNMP domain of EPAC-1, 149-318) (Homo sapiens, UniProt O95398)
T1 construct: gene RAPGEF3; pGEX4T1 N-terminal GST tag, removed by protease; E. coli BL21(DE3); glutathione, Ni-NTA and Superdex 75
T1 sequence (O95398 191-360): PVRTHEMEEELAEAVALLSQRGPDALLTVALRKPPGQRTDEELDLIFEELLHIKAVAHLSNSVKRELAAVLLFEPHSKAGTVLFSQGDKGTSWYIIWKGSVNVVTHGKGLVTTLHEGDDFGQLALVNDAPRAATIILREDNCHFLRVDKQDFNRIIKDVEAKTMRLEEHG
Assay: isothermal titration calorimetry (MicroCal iTC200)
Format: binding

## CC1=C(O)C(=O)C=C2C1=CC=C1[C@@]2(C)CC[C@@]2(C)[C@@H]3C[C@](C)(C(=O)O)CC[C@]3(C)CC[C@]12C [celastrol]
  Kd: 1.57 µM

— article PMC11109624, “Celastrol Ameliorates Neuronal Mitochondrial Dysfunction Induced by Intracerebral Hemorrhage via Targeting cAMP‐Activated Exchange Protein‐1” (Advanced Science, 2024)
